Experimental data: US9408885B2, “Combinations of therapeutic agents for treating melanoma” (VIB VZW, priority 2011, dated 2016)

How the values were obtained:
MM011 melanoma cells = details: MM011, 6.25-50 μM Cisplatin or 25-200 μM Melphalan, 24 hours
Experimental: (§4) Cell viability was measured at 24 hours by CellTiter-Glo assay. Data represent the mean (±SD) of at least three biological replicates. […] Data represent the mean (±SD) of at least three biological replicates. […] Data represent the mean (±SD) of at least three biological replicates.

MM031 melanoma cells = details: MM031, 6.25-50 μM Cisplatin or 25-200 μM Melphalan, 24 hours
Experimental: as §4

[1] = tested on: p53 pathway in MM cell lines overexpressing MDM4; test: p53 tumor suppressor response (p53 and p21 protein levels) in short-term cultured melanoma cell lines; assay type: cell-based, human; details: all but one (MM87) of the cell lines overexpressing MDM4; nutlin-3 at high concentrations
Experimental: Cells, adult tissue samples, or tumors were lysed in Giordano buffer (50 mM Tris-HCl (pH 7.4); 250 mM NaCl; 0.1% Triton X-100; 5 mM EDTA) containing phosphatase and protease inhibitors (Sigma). The adult tissue samples were sonicated three times 10 sec. […] The fractionated extracts were then transferred to a PVDF membrane (iBlot® Dry Blotting System). Membranes were blocked in Tris-buffered saline, 0.2% Tween-20 (TBST) containing 5% or 10% non-fat dry milk, and subsequently incubated with the appropriate primary antibody. Membranes were washed five times with TBST and incubated with either horseradish peroxidase-conjugated horse anti-mouse or goat anti-rabbit secondary antibody (Cell Signaling). After five washes with TBST, proteins were detected by enhanced chemiluminescense “ECL Western Blotting Detection Reagents” (Amersham Biosciences) or “SuperSignal West Femto Maximum Sensitivity Substrate” (Thermo Scientific) and visualized by exposure to X-ray film (Amersham Biosciences).

[2] = tested on: MDM4 protein in 451-lu cells; test: MDM4 protein expression level, 451-lu; assay type: cell-based, human; details: 5 μM, 24 hours
Experimental: (§1) FIG. 4: AKT inhibitors destabilize the MDM4 protein levels in melanomas.
(§2) In the present example we applied the Akt IV inhibitor on two different melanoma cell lines (i.e., the human amelanotic melanoma cell line A375 and the metastatic 451-lu human melanoma cell line, the latter also described in D. Herlyn et al. (1990), Cancer Research 50, 2296-2302).
(§3) Cells, adult tissue samples, or tumors were lysed in Giordano buffer (50 mM Tris-HCl (pH 7.4); 250 mM NaCl; 0.1% Triton X-100; 5 mM EDTA) containing phosphatase and protease inhibitors (Sigma). The adult tissue samples were sonicated three times 10 sec. The protein concentration was determined by Bradford assay (OD 595 nm; Bio-Rad Protein Assay) and 40 μg of each sample were fractionated by SDS-PAGE (Invitrogen; NuPAGE® Novex® 4-12% Bis-Tris Gel). The fractionated extracts were then transferred to a PVDF membrane (iBlot® Dry Blotting System). Membranes were blocked in Tris-buffered saline, 0.2% Tween-20 (TBST) containing 5% or 10% non-fat dry milk, and subsequently incubated with the appropriate primary antibody. […] After five washes with TBST, proteins were detected by enhanced chemiluminescense “ECL Western Blotting Detection Reagents” (Amersham Biosciences) or “SuperSignal West Femto Maximum Sensitivity Substrate” (Thermo Scientific) and visualized by exposure to X-ray film (Amersham Biosciences). […]

[3] = tested on: MDM4 protein in A375 cells; test: MDM4 protein expression level, A375; assay type: cell-based, human; details: A375, 5 μM, 24 hours
Experimental: as §1, §2, §3

Compound	growth inhibition, alkylating agent alone (MM011 melanoma cells)	growth inhibition, alkylating agent alone (MM031 melanoma cells)	p53 protein levels and p21 expression [1]	also measured
N[C@@H](Cc1ccc(N(CCCl)CCCl)cc1)C(=O)O [melphalan]	variable growth inhibition effects	variable growth inhibition effects		
COc1ccc(C2=N[C@@H](c3ccc(Cl)cc3)[C@@H](c3ccc(Cl)cc3)N2C(=O)N2CCNC(=O)C2)c(OC(C)C)c1 [nutlin-3]			increased p53 protein levels and induction of expression of p21	
CC[n+]1c(/C=C/N(C)c2ccccc2)n(-c2ccccc2)c2ccc(-c3nc4ccccc4s3)cc21.[I-] [Akt IV inhibitor]				protein expression level of MDM4 [2]: down-regulate; protein expression level of MDM4 [3]: down-regulate
COc1cccc2c1C(=O)c1c(O)c3c(c(O)c1C2=O)C[C@@](O)(C(=O)CO)C[C@@H]3O[C@H]1C[C@H](N)[C@H](O)[C@H](C)O1 [doxorubicin]			increased p53 protein levels and induction of expression of p21	
N.N.[Cl][Pt][Cl] [cisplatin]	variable growth inhibition effects	variable growth inhibition effects		
